Assays:
Details in all cases: 72 h
Calu-3 [1] = assay: drug sensitivity score (DSS) for viability; higher = more toxic; extreme values may be limits of the assay
U2OS [2] = assay: as above
HepG2 [3] = assay: as above
Caco-2 [4] = assay: as above
Vero E6 [5] = assay: as above
Calu-3 [6] = assay: cell viability relative to DMSO; higher = less toxic
U2OS [7] = assay: as above
HepG2 [8] = assay: as above
Caco-2 [9] = assay: as above
Vero E6 [10] = assay: as above
Calu-3 [11] = assay: relative viability EC50 (midpoint between 100% and the lowest measured viability); higher = less toxic
U2OS [12] = assay: as above
HepG2 [13] = assay: as above
Caco-2 [14] = assay: as above
Vero E6 [15] = assay: as above

Row | SMILES | drug sensitivity score (Calu-3 [1]) | drug sensitivity score (U2OS [2]) | drug sensitivity score (HepG2 [3]) | drug sensitivity score (Caco-2 [4]) | drug sensitivity score (Vero E6 [5]) | cell viability (Calu-3 [6]; 1 nM) | cell viability (Calu-3 [6]; 10 nM) | cell viability (Calu-3 [6]; 100 nM) | cell viability (Calu-3 [6]; 1000 nM) | cell viability (Calu-3 [6]; 10000 nM) | cell viability (U2OS [7]; 1 nM) | cell viability (U2OS [7]; 10 nM) | cell viability (U2OS [7]; 100 nM) | cell viability (U2OS [7]; 1000 nM) | cell viability (U2OS [7]; 10000 nM) | cell viability (HepG2 [8]; 1 nM) | cell viability (HepG2 [8]; 10 nM) | cell viability (HepG2 [8]; 100 nM) | cell viability (HepG2 [8]; 1000 nM) | cell viability (HepG2 [8]; 10000 nM) | cell viability (Caco-2 [9]; 1 nM) | cell viability (Caco-2 [9]; 10 nM) | cell viability (Caco-2 [9]; 100 nM) | cell viability (Caco-2 [9]; 1000 nM) | cell viability (Caco-2 [9]; 10000 nM) | cell viability (Vero E6 [10]; 1 nM) | cell viability (Vero E6 [10]; 10 nM) | cell viability (Vero E6 [10]; 100 nM) | cell viability (Vero E6 [10]; 1000 nM) | cell viability (Vero E6 [10]; 10000 nM) | relative viability EC50 (Calu-3 [11]) | relative viability EC50 (U2OS [12]) | relative viability EC50 (HepG2 [13]) | relative viability EC50 (Caco-2 [14]) | relative viability EC50 (Vero E6 [15])
1 | CNC(=N)NC(=O)Nc1c(C)cccc1C [lidamidine] | 0 | 0 | 0 | 0 | 0 | 103% | 102% | 96.2% | 88.7% | 104% | 98.6% | 100% | 97.7% | 99.5% | 100% | 101% | 89.3% | 106% | 104% | 108% | 90.4% | 99% | 91.9% | 95.3% | 92.5% | 99.6% | 96% | 97.7% | 102% | 105% | > 10 µM | > 10 µM | > 10 µM | > 10 µM | > 10 µM
2 | CCn1cc(C(=O)O)c(=O)c2cc(F)c(N3CCNC(C)C3)c(F)c21 (stereo not given) [lomefloxacin] | 2.4 | 0 | 0 | 0 | 0 | 95.8% | 96.8% | 108% | 80.1% | 94.6% | 105% | 98.3% | 102% | 104% | 104% | 114% | 111% | 120% | 102% | 94.1% | 107% | 103% | 108% | 91.2% | 104% | 105% | 103% | 98.8% | 106% | 95.3% | > 10 µM | > 10 µM | > 10 µM | > 10 µM | > 10 µM
3 | C/C(=C\C(=O)OCCCCCCCCC(=O)O)C[C@@H]1OC[C@H](C[C@@H]2O[C@H]2[C@@H](C)[C@H](C)O)[C@@H](O)[C@H]1O [mupirocin] | 0 | 0 | 0 | 0 | 0 | 106% | 104% | 102% | 90.8% | 109% | 104% | 99.7% | 99.3% | 94.7% | 99.8% | 104% | 100% | 100% | 100% | 92.2% | 99.9% | 107% | 95.2% | 98% | 102% | 97% | 102% | 95.4% | 97.3% | 97.1% | > 10 µM | > 10 µM | > 10 µM | > 10 µM | > 10 µM
4 | COc1c(C)c2c(c(O)c1C/C=C(\C)CCC(=O)O)C(=O)OC2 [mycophenolic-acid] | 6 | 8.7 | 9 | 5.8 | 6.7 | 96.3% | 96.2% | 97.2% | 71.3% | 49.5% | 98.3% | 102% | 94.7% | 62.6% | 21.9% | 101% | 95.7% | 95.2% | 57.5% | 31.8% | 93.1% | 102% | 103% | 77.5% | 47% | 96.1% | 103% | 96.2% | 75.2% | 34.2% | 0.814 µM | 1.03 µM | 0.686 µM | 1.13 µM | 1.29 µM
5 | C=C1CC[C@@]2(O)[C@H]3Cc4ccc(O)c5c4[C@@]2(CCN3CC2CC2)[C@H]1O5 [nalmefene] | 0 | 0 | 0 | 0 | 0 | 96.6% | 97.5% | 106% | 88.6% | 103% | 95.6% | 98.6% | 93.7% | 99.4% | 106% | 102% | 95.3% | 110% | 95.1% | 113% | 95.5% | 94.6% | 93.8% | 102% | 99.3% | 106% | 96.9% | 96.8% | 98.3% | 107% | > 10 µM | > 10 µM | > 10 µM | > 10 µM | > 10 µM
6 | CC(C)(C)NCc1cc(Nc2ccnc3cc(Cl)ccc23)c2c(c1O)CCCC2 [naphthoquine-phosphate] | 0 | 0 | 0 | 0.4 | 0 | 96.3% | 98% | 101% | 91% | 109% | 96.3% | 96.6% | 103% | 95.9% | 98.1% | 106% | 106% | 106% | 99.6% | 98.6% | 108% | 99.7% | 98.5% | 99.6% | 83% | 106% | 110% | 108% | 99.3% | 93.5% | > 10 µM | > 10 µM | > 10 µM | > 10 µM | > 10 µM
7 | CC(C)(C)C(=O)CN1C(=O)[C@H](NC(=O)Nc2cccc(C(=O)O)c2)CN(C2CCCCC2)c2ccccc21 [nastorazepide] | 0 | 0 | 0 | 0 | 0 | 96.7% | 104% | 113% | 98.8% | 118% | 100% | 96.7% | 103% | 96.5% | 100% | 99.9% | 106% | 96.7% | 108% | 95.9% | 96.6% | 95.4% | 93.1% | 92.7% | 95.8% | 104% | 105% | 99.2% | 105% | 98.8% | > 10 µM | > 10 µM | > 10 µM | > 10 µM | > 10 µM
8 | COc1ccc2c(c1OC)C(=O)O[C@@H]2[C@H]1c2c(cc3c(c2OC)OCO3)CCN1C [noscapine] | 0 | 0 | 0 | 0 | 0 | 97.3% | 103% | 102% | 95.9% | 95.8% | 103% | 98.7% | 101% | 97.5% | 102% | 105% | 100% | 86.2% | 100% | 104% | 115% | 109% | 98% | 110% | 105% | 98.4% | 102% | 96.9% | 104% | 104% | > 10 µM | > 10 µM | > 10 µM | > 10 µM | > 10 µM
9 | Cc1cc(C)c(S(=O)(=O)Nc2ccccc2C(F)(F)F)c(C)c1 [o-3M3FBS] | 0 | 0 | 0 | 0 | 0 | 98.9% | 99.5% | 89.4% | 100% | 93.7% | 96.8% | 99.8% | 97.8% | 95.6% | 96.5% | 102% | 109% | 95.6% | 94.9% | 99.4% | 94.2% | 99.4% | 98.3% | 97.7% | 103% | 95.8% | 98.4% | 94.3% | 88.3% | 97.3% | > 10 µM | > 10 µM | > 10 µM | > 10 µM | > 10 µM
10 | CCCCCCCC/C=C\CCCCCCCC(N)=O [oleamide] | 0 | 0 | 0 | 0 | 0 | 107% | 98.7% | 93.9% | 104% | 89.7% | 98.8% | 103% | 97.1% | 100% | 91.3% | 104% | 101% | 99.2% | 92.7% | 104% | 99.3% | 92.4% | 95.3% | 96.5% | 99.7% | 97.3% | 99.3% | 100% | 100% | 101% | > 10 µM | > 10 µM | > 10 µM | > 10 µM | > 10 µM
11 | CN(C)c1cc(CNCC(C)(C)C)c(O)c2c1C[C@H]1C[C@H]3[C@H](N(C)C)C(O)=C(C(N)=O)C(=O)[C@@]3(O)C(O)=C1C2=O [omadacycline] | 0.3 | 0 | 0 | 0 | 0 | 108% | 91.4% | 102% | 88.9% | 92.4% | 102% | 103% | 99.9% | 102% | 98.2% | 101% | 90.9% | 96.9% | 105% | 87% | 107% | 95.1% | 100% | 97.4% | 96.4% | 96.3% | 101% | 97.1% | 98.8% | 97.3% | > 10 µM | > 10 µM | > 10 µM | > 10 µM | > 10 µM
12 | CCC(CC)O[C@@H]1C=C(C(=O)O)C[C@H](N)[C@H]1NC(C)=O [oseltamivir-carboxylate] | 0 | 0 | 0 | 0 | 0 | 98.9% | 98.6% | 98.6% | 98.2% | 103% | 100% | 99.8% | 97.2% | 102% | 105% | 104% | 99.3% | 108% | 95.5% | 115% | 89.8% | 96.8% | 99.7% | 99.5% | 101% | 98.4% | 99.7% | 98.1% | 95.9% | 104% | > 10 µM | > 10 µM | > 10 µM | > 10 µM | > 10 µM
13 | O=C1CCCCCCCCCCCCCCO1 [oxacyclohexadecan-2-one] | 0 | 0 | 0 | 0 | 0 | 93.2% | 99.1% | 91.9% | 90% | 90.7% | 101% | 98.9% | 95.8% | 101% | 98% | 109% | 93.8% | 105% | 86% | 97.7% | 103% | 95.1% | 90% | 92.8% | 102% | 102% | 106% | 102% | 88.8% | 102% | > 10 µM | > 10 µM | > 10 µM | > 10 µM | > 10 µM
14 | O=c1[nH]c2ccccc2n1CCCN1CCN(C(c2ccccc2)c2ccccc2)CC1 [oxatomide] | 0 | 0 | 1.9 | 0.1 | 0 | 107% | 96.1% | 105% | 99.2% | 101% | 100% | 102% | 94.1% | 97.1% | 106% | 97.7% | 104% | 114% | 81.7% | 92.2% | 117% | 98.6% | 99.1% | 112% | 83.7% | 106% | 93.1% | 99.9% | 91.7% | 95.6% | > 10 µM | > 10 µM | > 10 µM | > 10 µM | > 10 µM

Reference: the supplement of paper PMC13380429
